Experiment [1] deals with V. campbellii protease activity. The experiment can be described thus: Protease assay (azocasein) in V. campbellii. Particulars: 2.5 μM PTSP vs DMSO.
For the next experiment, the system named is Vibrio strains. The experiment can be described thus: luxCDABE reporter across five Vibrio species. Particulars: each Vibrio strain except V. cholerae.
The target in another experiment is LuxR (Vibrio harveyi, UniProt P21308). The experiment can be described thus: EMSA DNA binding activity of LuxR. In kind it is biochemical, V. campbellii. More on the design: made in house; host or cells: E. coli BL21(DE3). Particulars: saturating concentrations. The procedure:
We noted that Qstatin and PTSP are both predicted to bind in the putative ligand binding pocket of SmcR. It is currently unknown how Qstatin allosterically affects DNA binding through its interactions in the ligand binding domain. […] We therefore also assessed the effect of sulfonamide PTSP on the DNA binding activity of LuxR and SmcR in vitro. […] (Kim et al., 2018).
SmcR and LuxR were purified as described previously. EMSAs were conducted as described previously using oligonucleotides corresponding to the luxC and vvpE promoter sequences. ITC analysis was conducted using purified LuxR or His-tagged SmcR, each in gel-filtration buffer (25 mM Tris pH 7.5, 300 mM NaCl, 0.5 mM EDTA, 1 mM DTT, 2% DMSO). All molecules analyzed were diluted in the same buffer. The samples were degassed for 10 min by vacuum aspiration. Titrations were performed on a Nano-ITC (TA Instruments). […] Thermograms were analyzed using NanoAnalyze software with the independent binding model.
(In general: A gel shift assay detects complexes by their altered migration in electrophoresis.)

Sequence of LuxR (P21308 whole entry, the tested form may be a part): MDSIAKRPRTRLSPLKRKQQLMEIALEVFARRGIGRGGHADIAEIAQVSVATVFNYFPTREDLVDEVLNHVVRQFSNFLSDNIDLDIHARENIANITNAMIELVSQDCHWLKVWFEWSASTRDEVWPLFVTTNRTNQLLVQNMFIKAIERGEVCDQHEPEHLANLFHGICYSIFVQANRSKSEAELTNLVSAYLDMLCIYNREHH

With `O=S(=O)(c1cccs1)n1ccc(-c2ccccc2)n1` [Compound 10B], in experiment [1], the “Protease activity of wild-type strain” value is listed as “significantly reduced protease activity”. In addition, the “IC50 values lower than Qstatin” value in the experiment with Vibrio strains is roughly 10 fold. Besides, on LuxR, the “DNA binding to LuxR” value was “did not alter DNA binding”.
